# Legend:
# [1] = molecular target: T1, Cannabinoid receptor 2 (Homo sapiens, UniProt P34972); experiment: Agonist activity at human CB2 receptor expressed in Sf9 cells coexpressing Galpha i2 assessed as Galpha GTPase activity using [gamma-33P]GTP at 100 uM by scintillation counting
# [2] = molecular target: T2, Cannabinoid receptor 1 (Homo sapiens, UniProt P21554); experiment: Agonist activity at human CB1 receptor expressed in Sf9 cells coexpressing Galpha i2 assessed as Galpha GTPase activity using [gamma-33P]GTP by scintillation counting
# [3] = molecular target: T1, Cannabinoid receptor 2; experiment: Antagonist activity at human CB2 receptor expressed in Sf9 cells coexpressing Galpha i2 assessed as Galpha GTPase activity using [gamma-33P]GTP at 100 uM by scintillation counting in presence of 30 nM CP55940; format: functional
# [4] = molecular target: T2, Cannabinoid receptor 1; experiment: Agonist activity at human CB1 receptor expressed in Sf9 cells coexpressing Galpha i2 assessed as Galpha GTPase activity using [gamma-33P]GTP at 100 uM by scintillation counting
# [5] = molecular target: T2, Cannabinoid receptor 1; experiment: Inverse agonist activity at human CB1 receptor expressed in Sf9 cells coexpressing Galpha i2 assessed as Galpha GTPase activity using [gamma-33P]GTP by scintillation counting in presence of CP55940
# [6] = molecular target: T1, Cannabinoid receptor 2; experiment: Inverse agonist activity at human CB2 receptor expressed in Sf9 cells coexpressing Galpha i2 assessed as Galpha GTPase activity using [gamma-33P]GTP by scintillation counting in presence of CP55940
# [7] = species on record: Homo sapiens; experiment: Selectivity ratio of EC50 for human CB1 receptor to EC50 for human CB2 receptor
# [8] = molecular target: T1, Cannabinoid receptor 2; experiment: Agonist activity at human CB2 receptor expressed in Sf9 cells coexpressing Galpha i2 assessed as Galpha GTPase activity using [gamma-33P]GTP by scintillation counting
# [9] = molecular target: T2, Cannabinoid receptor 1; experiment: Antagonist activity at human CB1 receptor expressed in Sf9 cells coexpressing Galpha i2 assessed as Galpha GTPase activity using [gamma-33P]GTP at 100 uM by scintillation counting in presence of 30 nM CP55940; format: functional
# [10] = molecular target: T1, Cannabinoid receptor 2; experiment: Antagonist activity at human CB2 receptor expressed in Sf9 cells coexpressing Galpha i2 assessed as Galpha GTPase activity using [gamma-33P]GTP by scintillation counting in presence of 30 nM CP55940; format: functional
# T2 sequence (P21554 whole entry): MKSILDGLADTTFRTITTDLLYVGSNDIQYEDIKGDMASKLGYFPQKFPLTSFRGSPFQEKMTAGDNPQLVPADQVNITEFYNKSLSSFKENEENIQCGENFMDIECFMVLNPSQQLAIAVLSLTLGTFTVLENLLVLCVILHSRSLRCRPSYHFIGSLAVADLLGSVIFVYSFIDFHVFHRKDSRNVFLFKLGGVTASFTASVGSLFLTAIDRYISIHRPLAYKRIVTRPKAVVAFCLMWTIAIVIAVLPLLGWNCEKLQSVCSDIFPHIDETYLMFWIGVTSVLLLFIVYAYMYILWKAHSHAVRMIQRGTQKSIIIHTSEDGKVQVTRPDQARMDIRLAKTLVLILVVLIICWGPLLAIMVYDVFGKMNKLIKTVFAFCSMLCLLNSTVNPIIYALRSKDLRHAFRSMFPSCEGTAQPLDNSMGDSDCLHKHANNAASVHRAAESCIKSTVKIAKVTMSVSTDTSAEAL
# T1 sequence (P34972 whole entry): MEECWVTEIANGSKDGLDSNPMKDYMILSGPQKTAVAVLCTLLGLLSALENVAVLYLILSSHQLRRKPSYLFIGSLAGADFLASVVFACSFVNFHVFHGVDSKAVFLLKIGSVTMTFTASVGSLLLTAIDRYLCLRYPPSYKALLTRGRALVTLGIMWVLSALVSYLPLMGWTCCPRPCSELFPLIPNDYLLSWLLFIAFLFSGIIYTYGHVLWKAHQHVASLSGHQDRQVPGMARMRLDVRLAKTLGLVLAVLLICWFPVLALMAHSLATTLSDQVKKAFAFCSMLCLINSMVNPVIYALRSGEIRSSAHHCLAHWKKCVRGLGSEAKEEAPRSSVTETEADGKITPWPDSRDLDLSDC
smiles,measurement,setting,value
CCOc1ccc(Cc2nc3cc(C(=O)N(CC)CC)ccc3n2CCC(C)C)cc1,Emax,[1],192%
same,EC50,[2],3.24 µM
same,Emax,[3],167%
same,Emax,[4],48%
CCOc1ccc(Cc2nc3cc(C(=O)N(CC)CC)ccc3n2CCCCCCCCCCN(C)CCCCCCCCCCn2c(Cc3ccc(OCC)cc3)nc3cc(C(=O)N(CC)CC)ccc32)cc1,Emax,[1],-11%
same,Emax,[3],-33%
same,EC50,[5],6.31 µM
same,EC50,[6],6.61 µM
same,Emax,[4],-97%
CCOc1ccc(Cc2nc3cc(C(=O)N(CC)CC)ccc3n2CCCCN(C)CCCCn2c(Cc3ccc(OCC)cc3)nc3cc(C(=O)N(CC)CC)ccc32)cc1,Emax,[1],5%
same,Emax,[3],14%
same,EC50,[6],57.5 µM
same,Emax,[4],-40%
CCCCn1c(Cc2ccc(OCC)cc2)nc2cc(C(=O)N(CC)CC)ccc21,Emax,[1],198%
same,EC50,[2],1.35 µM
same,Ratio EC50,[7],8
same,Emax,[3],162%
same,EC50,[8],0.174 µM
same,Emax,[4],67%
CCOc1ccc(Cc2nc3cc(C(=O)N(CC)CC)ccc3n2CCCN(C)CCCn2c(Cc3ccc(OCC)cc3)nc3cc(C(=O)N(CC)CC)ccc32)cc1,Emax,[1],-2%
same,Emax,[3],5%
same,EC50,[5],34.7 µM
same,EC50,[6],12 µM
same,Emax,[4],-43%
CCOc1ccc(Cc2nc3cc(C(=O)NCCCCCCCCCCN(C)CCCCCCCCCCNC(=O)c4ccc5c(c4)nc(Cc4ccc(OCC)cc4)n5CCC(C)C)ccc3n2CCC(C)C)cc1,Emax,[1],3%
same,Emax,[3],28%
same,EC50,[5],25.7 µM
same,EC50,[6],16.6 µM
same,Emax,[4],-42%
CCOc1ccc(Cc2nc3cc(C(=O)N(CC)CC)ccc3n2CCCN(C)C)cc1,Emax,[1],106%
same,Emax,[9],95%
same,Emax,[3],69%
same,EC50,[10],12.6 µM
same,Emax,[4],-3%
CCOc1ccc(Cc2nc3cc(C(=O)NCCCN(C)CCCNC(=O)c4ccc5c(c4)nc(Cc4ccc(OCC)cc4)n5CCC(C)C)ccc3n2CCC(C)C)cc1,Emax,[1],-11%
same,Emax,[3],-32%
same,EC50,[5],17.4 µM
same,EC50,[6],2.88 µM
same,Emax,[4],-83%
Cc1c(C(=O)NN2CCCCC2)nn(-c2ccc(Cl)cc2Cl)c1-c1ccc(I)cc1,Emax,[9],-8%
same,Emax,[4],-84%
Cc1ccc(Cn2nc(C(=O)NC3C4(C)CCC(C4)C3(C)C)cc2-c2ccc(Cl)c(C)c2)cc1 (stereo not given),Emax,[1],-3%
same,Emax,[3],9%
COc1ccc(C(=O)c2c(C)n(CCN3CCOCC3)c3cc(I)ccc23)cc1,Emax,[1],5%
same,Emax,[3],15%
same,EC50,[6],0.603 µM
CCOc1ccc(Cc2nc3cc(C(=O)OC)ccc3n2CCC(C)C)cc1,Emax,[1],37%
same,Emax,[9],98%
same,Emax,[3],121%
same,EC50,[8],0.295 µM
same,Emax,[4],-3%
CCOc1ccc(Cc2nc3cc(C(=O)N(CC)CC)ccc3n2CCCCCCCCCCN(C)C)cc1,Emax,[1],1%
same,Emax,[3],60%
same,EC50,[5],25.1 µM
same,EC50,[6],31.6 µM
same,Emax,[4],-55%
CCOc1ccc(Cc2nc3cc(C(=O)NCCCCCCCCCCN(C)C)ccc3n2CCC(C)C)cc1,Emax,[1],0%
same,Emax,[3],20%
same,EC50,[5],24 µM
same,EC50,[6],19.5 µM
same,Emax,[4],-58%
CCOc1ccc(Cc2nc3cc(C(=O)NCCCN(C)C)ccc3n2CCC(C)C)cc1,Emax,[1],11%
same,Emax,[9],71%
same,Emax,[3],65%
same,Emax,[4],-5%

# — ChEMBL document CHEMBL3352263, “Synthesis and biological evaluation of bivalent cannabinoid receptor ligands based on hCB₂R selective benzimidazoles reveal unexpected intrinsic properties” (Bioorg Med Chem, 2014)
